Like-named read-outs stand apart in the source and are kept apart here. Bridge positions count the residues as written; N and C are the ends. Square brackets hold non-standard residues; d marks the D form. Peptide text beside a SMILES is read from it. dPhe(4-F) = N[C@H](Cc1ccc(F)cc1)C(=O)O
What was measured:
Assay type in all cases: cell-based
[1] = target: MC1R (Homo sapiens, UniProt Q01726); test: cAMP assay (β-galactosidase reporter, cAMP Hunter), MC1R; conditions: for Ratios of EC50 values MC ¼: EC50(MC1R)/EC50(MC4R)
Sequence of MC1R (Q01726 whole entry): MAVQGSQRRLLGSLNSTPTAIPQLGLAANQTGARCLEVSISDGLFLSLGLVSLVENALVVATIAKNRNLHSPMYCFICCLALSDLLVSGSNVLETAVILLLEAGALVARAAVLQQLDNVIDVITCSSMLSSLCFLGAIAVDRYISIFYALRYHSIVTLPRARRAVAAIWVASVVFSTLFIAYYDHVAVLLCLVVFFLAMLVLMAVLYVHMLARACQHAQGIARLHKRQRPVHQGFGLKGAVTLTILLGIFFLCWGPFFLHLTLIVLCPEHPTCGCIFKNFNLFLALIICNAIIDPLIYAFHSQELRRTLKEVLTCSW
Excerpt: (§1) cAMP Accumulation Measurement Via a β-Galactosidase (β-Gal) Reporter System
(§2) A chemiluminescence readout system that uses an enzyme fragment complementation (EFC) system with β-galactosidase (β-Gal) as the functional reporter system was used. This assay system for various melanocortin receptor systems is commercially available (cAMP Hunter GPCR assay system, Discoverx Corp, Fremont, Calif.). This assay utilizes the β-Gal enzyme that is split into two complementary portions; EA for Enzyme Acceptor and ED for Enzyme Donor. In the assay, the ED portion fused to cAMP is made to compete with cAMP generated by cells for binding to a cAMP-specific antibody. The EA is then added to form active β-Gal with any unbound ED-cAMP.
(§3) Briefly, 10000 cells per well are plated overnight and each well (cells incubated with 10 μl assay buffer) is then incubated with 4× serial concentration of the test compound in the cell assay buffer (5 μL) and cAMP antibody reagent (5 μL) for 30 min at 37° C. The cell lysis buffer (20 μL) containing ED-cAMP coupled enzyme fragment and the reporter substrate (Emerald II-Galacton Star, 5:1) is then added and incubated for 60 min at room temperature. Next, 20 μL of EA β-Gal fragment reagent is added.

[2] = target: MC4R (Homo sapiens, UniProt P32245); test: cAMP assay (β-galactosidase reporter, cAMP Hunter), MC4R
Sequence of MC4R (P32245 whole entry): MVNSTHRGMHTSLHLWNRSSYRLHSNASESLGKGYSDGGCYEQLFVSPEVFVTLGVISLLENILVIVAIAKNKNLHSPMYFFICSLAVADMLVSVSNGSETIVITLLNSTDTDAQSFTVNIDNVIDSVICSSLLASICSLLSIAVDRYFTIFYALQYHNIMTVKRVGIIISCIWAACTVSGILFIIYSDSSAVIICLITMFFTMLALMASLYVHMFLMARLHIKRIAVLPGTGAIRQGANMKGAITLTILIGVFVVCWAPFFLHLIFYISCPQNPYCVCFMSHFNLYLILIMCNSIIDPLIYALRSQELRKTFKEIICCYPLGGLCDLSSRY
Excerpt: as §1, §2, §3

[3] = target: MC5R (Homo sapiens, UniProt P33032); test: cAMP assay (β-galactosidase reporter, cAMP Hunter), MC5R; conditions: for Ratios of EC50 values MC 5/4: EC50(MC5R)/EC50(MC4R)
Sequence of MC5R (P33032 whole entry): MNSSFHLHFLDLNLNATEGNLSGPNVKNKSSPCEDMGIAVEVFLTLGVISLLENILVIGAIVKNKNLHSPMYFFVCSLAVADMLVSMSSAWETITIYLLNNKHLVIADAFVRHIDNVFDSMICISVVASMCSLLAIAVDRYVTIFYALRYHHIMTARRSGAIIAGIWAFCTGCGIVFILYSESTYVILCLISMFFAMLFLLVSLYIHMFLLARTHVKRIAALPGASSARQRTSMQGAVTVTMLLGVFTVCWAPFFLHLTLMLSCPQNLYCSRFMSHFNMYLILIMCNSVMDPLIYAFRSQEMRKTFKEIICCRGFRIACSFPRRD
Excerpt: as §1, §2, §3

[4] = target: MC3R (Homo sapiens, UniProt P41968); test: cAMP assay (β-galactosidase reporter, cAMP Hunter), MC3R; conditions: for Ratios of EC50 values MC ¾: EC50(MC3R)/EC50(MC4R)
Sequence of MC3R (P41968 whole entry): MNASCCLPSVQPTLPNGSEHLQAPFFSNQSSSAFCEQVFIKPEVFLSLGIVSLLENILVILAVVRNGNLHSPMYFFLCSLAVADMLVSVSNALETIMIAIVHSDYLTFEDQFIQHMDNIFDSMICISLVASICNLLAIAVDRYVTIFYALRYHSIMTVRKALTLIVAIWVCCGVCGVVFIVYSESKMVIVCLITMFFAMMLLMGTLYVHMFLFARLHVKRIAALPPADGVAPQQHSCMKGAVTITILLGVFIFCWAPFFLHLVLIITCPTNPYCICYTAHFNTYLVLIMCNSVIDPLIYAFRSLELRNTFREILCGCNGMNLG
Excerpt: as §1, §2, §3

[5] = agonist cAMP stimulation, read-out: cAMP Assay (EC-50) MC1R
[6] = agonist cAMP stimulation, read-out: cAMP Assay (EC-50) MC4R
[7] = agonist cAMP stimulation, read-out: cAMP Assay (EC-50) MC5R
[8] = agonist cAMP stimulation, read-out: cAMP Assay (EC-50) MC3R
[9] = agonist cAMP stimulation, in uM, read-out: cAMP Assay (EC-50) MC3R

Row | SMILES | Ratios of EC50 values MC ¼ [1] | EC50 [1, 5] | EC50 [2, 6] | Ratios of EC50 values MC 5/4 [3] | EC50 [3, 7] | Ratios of EC50 values MC ¾ [4] | EC50 [4, 8] | EC50 [1] | EC50 [2] | EC50 [3] | EC50 [4] | EC50 [4, 9]
1 | CC(=O)N[C@@H](CCCNC(=N)N)C(=O)N[C@H]1CSSC[C@@H](C(N)=O)NC(=O)[C@H](Cc2c[nH]c3ccccc23)NC(=O)[C@H](CCCNC(=N)N)NC(=O)[C@@H](Cc2ccccc2)NC(=O)[C@H](Cc2c[nH]cn2)NC(=O)[C@@H](CC(C)C)NC1=O [Compound 1, Ac-Arg-cyclo[Cys-D-Leu-His-D-Phe-Arg-Trp-Cys]-NH2] | 0.68 | 0.47 nM | 0.7 nM | 130 | 91 nM | 1.13 | 0.00079 µM | – | – | – | – | –
2 | CC[C@@H](C)[C@H]1NC(=O)[C@@H](NC(=O)[C@H](CCCNC(=N)N)NC(C)=O)CSSC[C@@H](C(N)=O)NC(=O)[C@H](Cc2c[nH]c3ccccc23)NC(=O)[C@H](CCCNC(=N)N)NC(=O)[C@@H](Cc2ccccc2)NC(=O)[C@H](Cc2c[nH]cn2)NC1=O [Compound 2, Ac-Arg-cyclo[Cys-D-Ile-His-D-Phe-Arg-Trp-Cys]-NH2] | 0.69 | 0.69 nM | 1 nM | 420 | 420 nM | 0.96 | 0.00096 µM | – | – | – | – | –
3 | CC(=O)N[C@@H](CCCNC(=N)N)C(=O)N[C@H]1CSSC[C@@H](C(N)=O)NC(=O)[C@H](Cc2c[nH]c3ccccc23)NC(=O)[C@H](CCCNC(=N)N)NC(=O)[C@@H](Cc2ccccc2)NC(=O)[C@H](Cc2c[nH]cn2)NC(=O)[C@@H](C(C)(C)C)NC1=O [Compound 3, Ac-Arg-cyclo[Cys-D-Tle-His-D-Phe-Arg-Trp-Cys]-NH2] | 1 | 1 nM | 0.7 nM | 930 | 672 nM | 1 | 0.0007 µM | – | – | – | – | –
4 | CC(=O)N[C@@H](CCCNC(=N)N)C(=O)N[C@H]1CSSC[C@@H](C(N)=O)NC(=O)[C@H](Cc2c[nH]c3ccccc23)NC(=O)[C@H](CCCNC(=N)N)NC(=O)[C@@H](Cc2ccccc2)NC(=O)[C@H](Cc2c[nH]cn2)NC(=O)[C@@H](C(C)C)NC1=O [Compound 4, Ac-Arg-cyclo[Cys-D-Val-His-D-Phe-Arg-Trp-Cys]-NH2] | 0.93 | 1.25 nM | 1.34 nM | 584 | 782 nM | 1.19 | 0.00159 µM | – | – | – | – | –
5 | CC(=O)N[C@@H](CCCNC(=N)N)C(=O)N[C@H]1CSSC[C@@H](C(N)=O)NC(=O)[C@H](Cc2c[nH]c3ccccc23)NC(=O)[C@H](CCCNC(=N)N)NC(=O)[C@@H](Cc2ccccc2)NC(=O)[C@H](Cc2cncn2C)NC(=O)[C@@H](C)NC1=O [Compound 5, Ac-Arg-cyclo[Cys-D-Ala-His(3-Me)-D-Phe-Arg-Trp-Cys]-NH2] | 4 | – | – | 945 | – | 350 | – | 4.1 nM | 1.15 nM | 1080 nM | 0.406 µM | –
6 | CC(=O)N[C@@H](CCCNC(=N)N)C(=O)N[C@H]1CSSC[C@@H](C(N)=O)NC(=O)[C@H](Cc2c[nH]c3ccccc23)NC(=O)[C@H](CCCNC(=N)N)NC(=O)[C@@H](Cc2ccccc2)NC(=O)[C@H](Cc2cn(C)cn2)NC(=O)[C@@H](C)NC1=O [Compound 6, Ac-Arg-cyclo[Cys-D-Ala-His(1-Me)-D-Phe-Arg-Trp-Cys]-NH2] | 40 | – | – | 662 | – | 6 | – | 30.4 nM | 0.7 nM | 467 nM | 0.0043 µM | –
7 | CC(=O)N[C@@H](CCCNC(=N)N)C(=O)N[C@H]1CSSC[C@@H](C(N)=O)NC(=O)[C@H](Cc2c[nH]c3ccccc23)NC(=O)[C@H](CCCNC(=N)N)NC(=O)[C@@H](Cc2ccccc2)NC(=O)[C@H](Cc2c[nH]c3ccccc23)NC(=O)[C@@H](C)NC1=O [Compound 7, Ac-Arg-cyclo[Cys-D-Ala-Trp-D-Phe-Arg-Trp-Cys ]-NH2] (Ac-RC[dA]W[dF]RWC-NH2; disulfide 2-8) | 8 | 273 nM | 34 nM | 7 | 259 nM | >290 | – | – | – | – | – | > 10 µM
8 | CC(=O)N[C@@H](CCCNC(=N)N)C(=O)N[C@H]1CSSC[C@@H](C(N)=O)NC(=O)[C@H](Cc2c[nH]c3ccccc23)NC(=O)[C@H](CCCNC(=N)N)NC(=O)[C@@H](Cc2ccccc2)NC(=O)[C@H](CCC(N)=O)NC(=O)[C@@H](C)NC1=O [Compound 8, Ac-Arg-cyclo[Cys-D-Ala-Gln-D-Phe-Arg-Trp-Cys]-NH2] (Ac-RC[dA]Q[dF]RWC-NH2; disulfide 2-8) | 40 | 71 nM | 1.6 nM | 155 | 255 nM | 5 | 0.0086 µM | – | – | – | – | –
9 | CC(=O)N[C@@H](CCCNC(=N)N)C(=O)N[C@H]1CSSC[C@@H](C(N)=O)NC(=O)[C@H](Cc2c[nH]c3ccccc23)NC(=O)[C@H](CCCNC(=N)N)NC(=O)[C@@H](Cc2ccccc2)NC(=O)[C@H](CC(N)=O)NC(=O)[C@@H](C)NC1=O [Compound 9, Ac-Arg-cyclo[Cys-D-Ala-Asn-D-Phe-Arg-Trp-Cys]-NH2] (Ac-RC[dA]N[dF]RWC-NH2; disulfide 2-8) | 90 | 248 nM | 3 nM | 530 | 1490 nM | 30 | 0.081 µM | – | – | – | – | –
10 | CC(=O)N[C@@H](CCCNC(=N)N)C(=O)N[C@H]1CSSC[C@@H](C(N)=O)NC(=O)[C@H](Cc2c[nH]c3ccccc23)NC(=O)[C@H](CCCNC(=N)N)NC(=O)[C@@H](Cc2ccccc2)NC(=O)[C@H](CCCNC(=N)N)NC(=O)[C@@H](C)NC1=O [Compound 10, Ac-Arg-cyclo[Cys-D-Ala-Arg-D-Phe-Arg-Trp-Cys]-NH2] (Ac-RC[dA]R[dF]RWC-NH2; disulfide 2-8) | 2.31 | 6.2 nM | 2.7 nM | – | – | 1.45 | 0.0039 µM | – | – | – | – | –
11 | CC(=O)N[C@@H](CCCNC(=N)N)C(=O)N[C@H]1CSSC[C@@H](C(N)=O)NC(=O)[C@H](Cc2c[nH]c3ccccc23)NC(=O)[C@H](CCCNC(=N)N)NC(=O)[C@@H](Cc2ccccc2)NC(=O)[C@H](Cc2ccc(O)cc2)NC(=O)[C@@H](C)NC1=O [Compound 11, Ac-Arg-cyclo[Cys-D-Ala-Tyr-D-Phe-Arg-Trp-Cys]-NH2] (Ac-RC[dA]Y[dF]RWC-NH2; disulfide 2-8) | 6.67 | 301 nM | 45.1 nM | – | – | >22.2 | > 1 µM | – | – | – | – | –
12 | CC(=O)N[C@@H](CCCNC(=N)N)C(=O)N[C@H]1CSSC[C@@H](C(N)=O)NC(=O)[C@H](Cc2c[nH]c3ccccc23)NC(=O)[C@H](CCCNC(=N)N)NC(=O)[C@@H](Cc2ccccc2)NC(=O)[C@@H]2CCCN2C(=O)[C@@H](C)NC1=O [Compound 13, Ac-Arg-cyclo[Cys-D-Ala-Pro-D-Phe-Arg-Trp-Cys]-NH2] (Ac-RC[dA]P[dF]RWC-NH2; disulfide 2-8) | 5 | 280 nM | 56 nM | 13 | 707 nM | >200 | – | – | – | – | – | > 10 µM
13 | CC(=O)N[C@@H](CCCNC(=N)N)C(=O)N[C@H]1CSSC[C@@H](C(N)=O)NC(=O)[C@H](Cc2c[nH]c3ccccc23)NC(=O)[C@H](CCCNC(=N)N)NC(=O)[C@@H](Cc2ccc(F)cc2)NC(=O)[C@@H]2CCCN2C(=O)[C@@H](C)NC1=O [Compound 14, Ac-Arg-cyclo[Cys-D-Ala-Pro-D-Phe(p-F)-Arg-Trp-Cys]-NH2] (Ac-RC[dA]P[dPhe(4-F)]RWC-NH2; disulfide 2-8) | 7 | 169 nM | 24 nM | 12 | 283 nM | >400 | – | – | – | – | – | > 10 µM

— patent US10196425B2, “Peptide compositions” (RHYTHM PHARMACEUTICALS, INC., priority 2013, dated 2019)
